From PMC10531517, “Rational Design of Novel Peptidomimetics against Influenza A Virus: Biological and Computational Studies” (International Journal of Molecular Sciences, 2023)
Where a SMILES comes first, the peptide text is derived from it. [ ]: non-standard residue; d: D form. NMeH = CN[C@@H](Cc1c[nH]cn1)C(=O)O; Gly(N-CH2CH2OH) = O=C(O)CNCCO; NMeL = CN[C@@H](CC(C)C)C(=O)O

Tested on: A/Parma/24/09 H1N1 virus
Conditions: for EC50: read-out: EC50 (concentration that reduced cytopathic effect by 50%)

Row | SMILES | SI (ratio of CC50 and EC50) | EC50 [nM]
1 | CC(=O)N[C@@H](CO)C(=O)N(C)[C@@H](CC(C)C)C(=O)N[C@@H](CC(=O)O)C(=O)N[C@@H](CS)C(N)=O [Peptide 4, S(N-Me)LDC] (Ac-S[NMeL]DC-NH2) | >2.9 × 10^5 | 0.085
2 | CC(=O)N[C@@H](CO)C(=O)N[C@@H](CCCCN)C(=O)N(C)[C@@H](Cc1c[nH]cn1)C(=O)N[C@@H](CO)C(N)=O [Peptide 9, SK(N-Me)HS] (Ac-SK[NMeH]S-NH2) | >1.78 × 10^3 | 0.143
3 | CC(=O)N[C@@H](CO)C(=O)N[C@@H](CCCCN)C(=O)N[C@@H](Cc1c[nH]cn1)C(=O)N(CCO)CC(N)=O [Peptide 18, SKHNhS] (Ac-SKH[Gly(N-CH2CH2OH)]-NH2) | >5 × 10^5 | 0.05
